“Also recorded” adds a separate entry of the source. Where two headings read alike, the source gives them in different places.
What was measured:
[1] = tested on: P301S tau transgenic mice; experiment: Morris water maze; type: in vivo, mouse; settings: 2 mg/kg i.p. once daily, tested at 15 weeks of age
Method: (§1) All animal work was conducted either on CR57BL/6 mice, obtained from Charles River Laboratories, Wilmington, Mass., USA, or on homozygous transgenic mice overexpressing human tau with the P301S mutation on a C57BL/6 background, originally developed by Michel Goedert (Xu et al. 2014), obtained by own breeding. Animals were kept at 23±1° C. under standard 12 h light-dark cycle with free access to food and water. They were handled according to the EU Council Directive 2010/63/EU, the Guide for the Care and Use of Laboratory Animals (National Research Council 2011) and the guidelines of the local institutional committee. The experiments were authorized by the local authority “Regierung von Oberbayern” under application number 55.2-1-54-2532-165-13. […]
(§2) For the efficacy trial in the early disease stage (Xu et al. 2014), P301S mice (n=8 per group) and wild type littermates (n=9 per group) received once daily i.p. injections of 2 mg/kg CCT020312 or equivalent volumes of saline from 9 to 14 weeks of age; they were analyzed with the Morris Water Maze in the 15th week of age.
To analyze spatial learning and memory, the Morris water maze test was performed at 15 weeks of age (n=8 per group) in a cylindrical water basin (diameter 120 cm) filled with water with a depth of 31 cm. […] Tracks of training and probe trial were recorded with the computerized Viewer2 system (Biobserve, Mannheim, Germany).

pathological tau species = experiment: Immunoblot of tau species in P301S mouse brains; type: in vivo; settings: P301S mice, 2 mg/kg i.p. once daily for 6 weeks from 17 weeks of age, vs saline
Method: (§3) For the efficacy trial in the late disease stage (Xu et al. 2014), P301S mice and wild type littermates received once daily i.p. injections of 2 mg/kg CCT020312 or saline from 17 to 22 weeks of age (n=12 for CCT020312 treated P301S mice, n=9 for other groups); they were analyzed with the Rotarod test in the 23rd week of age.
Twelve hours after the last injection, animals were anesthetized by i.p. injections of pentobarbital at (100 mg/kg) and transcardially perfused with 0.1 M phosphate buffer for 2 min, then fixed for 10 min with 4% paraformaldehyde. Post-fixation of the brain was done in 4% paraformaldehyde at 4° C. for 48 h. Their brains were prepared for histological analysis, as described (Xu et al. 2014). For the immunoblot analysis in P301S mice and wild type mice were sacrificed by cervical dislocation, their brains were frozen on dry ice and stored at −80° C. for Western blot analysis.
Frontal cortex tissue was dissected from the fresh-frozen sample on dry ice and suspended in 750 μl of T-PER Tissue Protein Extraction Reagent (Thermo Fisher Scientific) and 1× cOmplete Protease Inhibitor Cocktail Tablets (Hoffmann-La Roche) and 1× PhosSTOP Phosphatase Inhibitor Cocktail Tablets (Hoffmann-La Roche). The tissue piece was initially ground with a pestle inside a microcentrifuge tube on ice and then homogenized by sonification with Branson Sonifier 450 Analog (Branson, now Thermo Fisher Scientific) with 10×500 ms bursts at intensity level 3 on ice. […] Protein concentrations were determined using the BCA kit (Thermo Fisher Scientific) by heating the samples at 60° C. for 30 minutes and measuring the absorption on the NanoDrop 2000c spectrophotometer (Thermo Fisher Scientific).
20 μg of protein (200 μg for pPERK blots) were adjusted to equal concentrations between samples by dilution with M-PER and subsequently heated at 95° C. for 5 minutes with Roti®-Load 1 (Carl Roth). […] Chemiluminescence was detected with the Gel Doc™ XR System (BioRad) and analyzed with the Image Lab™ software (BioRad), followed by graphical and statistical analysis with Prism 6 (GraphPad Software).

[2] = tested on: wild type and P301S tau mice; type: in vivo, mouse
Method: as §1, §2, §3

Structure (SMILES): CCN(CC)CCC(=O)N1N=C(c2c(-c3ccccc3)c3cc(Br)ccc3[nH]c2=O)CC1c1ccc(Br)cc1 (stereo not shown) [CCT020312, 6-bromo-3-[5-(4-bromo-phenyl)-1-(3-diethylamino-propionyl)-4,5-dihydro-1H-pyrazol-3-yl]-4-phenyl-1H-quinolin-2-one]
- latency to find the hidden platform / learning curve ([1]; P301S tau mice, vs saline): significantly improved; also recorded: steeper learning curve
- latency to find the hidden platform / learning curve ([1]; wild type mice): did not significantly affect; also recorded: did not change the learning curve
- AT180-immunoreactivity (paired helical filament tau), immunoblot (pathological tau species): decreased
- CP13-immunoreactivity (S202-phosphorylated tau), immunoblot (pathological tau species): decreased
- MC1-immunoreactivity (conformationally changed tau), immunoblot (pathological tau species): decreased
- death or obvious signs of sickness during treatment ([2]; aged wild type and P301S tau mice, 2 mg/kg once daily for 6 weeks, until 23 weeks of age): no CCT020312-treated wild type (n=9) and P301S tau mouse (n=12) died during the treatment period or showed any obvious signs of sickness
- death or obvious signs of sickness during treatment ([2]; young wild type and P301S tau mice, 2 mg/kg for 6 weeks): No CCT020312-treated mouse of the wild type group (N=8) and of the P301S tau group (N=8) died during the treatment period or showed any obvious signs of sickness

— patent US10369123B2, “Perk activator for the treatment of neurodegenerative diseases” (DEUTSCHES ZENTRUM FÜR NEURODEGENERATIVE ERKRANKUNGEN E.V. …, priority 2014, dated 2019)
